The test system of experiment [1] is CD44v6. Nature of the experiment: HGF-induced activation of Met and Erk in HT29 cells (Western blot). It is filed as cell-based, human. As for the experimental part: (§1) FIG. 28: A: Activation of Met and signal transduction induced by HGF depends on CD44v6 in L3.6pl cells. L3.6pl cells were treated with the human v6 peptide (human v6 14mer) or the rat v6 peptide as control prior to induction with 10 ng/ml HGF. Activation of Met and ERK was determined in western blot. The numbers refer to the fold induction. The experiment was repeated at least 5 times. B: Activation of c-Met and signal transduction induced by HGF depends on CD44v6 HeLa cells. Starved HeLa cells respectively HT29 cells were incubated with the v6 peptide (human v6 14mer) or a control peptide for 10 minutes at 37° C. and then induced with 25 ng/ml of HGF for the indicated time points. Cells were then either lysed and the lysates were subjected to Western Blot analysis for phospho-Met and Met. C: Activation of c-Met and signal transduction induced by HGF depends on CD44v6 in HT29 cells. HGF-induced c-Met and Erk phosphorylation in HT29 was determined as described above using phospho-specific antibodies. […]
(§2) The contribution of CD44v6 to Met signaling in the human epithelial pancreatic cancer cells L3.6pl (derived from Colo 357), the cervix carcinoma cells HeLa and the colon cancer cells HT29 were analysed using the CD44v6 peptide (v6 14mer; v6 5mer tested as well, data not shown).
Background: A western blot detects proteins with antibodies after separation by electrophoresis.

A further experiment deals with L3.6pl cells. Nature of the experiment: Human VEGF in cell culture supernatant of L3.6pl cells (Quantikine immunoassay). It counts as cell-based. As to conditions: peptide 200 ng/ml in the culture medium, 5 days. On the procedure: Determination of human HGF and VEGF levels in cell culture medium of L3.6pl cells were performed using the Quantikine Human HGF Immunoassay and Quantikine Human VEGF Immunoassay from Roche (Mannheim, GER) and R&D Systems (Wiesbaden, Germany) For this purpose 3×10^6 cells were cultured for 5 days in a 15 cm plate in the presence of the respective peptides as indicated. The supernatant by centrifugation (20 ml) was centrifuged (1200 rpm) and the assay was performed according to manufacturer's instructions.

For experiment [2], the system named is CD44v6. Nature of the experiment: HGF-induced activation of Met and Erk in HeLa cells (Western blot). It counts as cell-based, human. As for the experimental part:
as §1, §2

Experiment [3] relates to CD44v6. Nature of the experiment: HGF-induced activation of Met and ERK in L3.6pl cells (Western blot). It counts as cell-based, human. As to conditions: peptide before induction with 10 ng/ml HGF. The essentials:
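L3.6pl human pancreatic carcinoma cells serum-starved 24 h, pretreated 10 min at 37° C with CD44v6 or control peptide (100 ng/mL), then stimulated with HGF (10 ng/mL) 5 min. Phospho-Met and phospho-ERK detected by western blot with total Met/ERK reprobe; bands quantified densitometrically.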

For the sequence “KEQWFGNRWHEGYR [SEQ ID NO: 6, human CD44v6 14mer peptide]”, the “HGF-induced activation of Met” value is “able to prevent activation” in the experiment on CD44v6 [1] (HT29, starved, peptide 10 min 37° C., HGF 25 ng/ml) and “able to prevent activation” with CD44v6 [2] (starved, peptide 10 min 37° C., HGF 25 ng/ml). In addition, the “HGF-induced activation of downstream target Erk” value is given as “able to prevent activation” in the experiment on CD44v6 [1] (HT29, peptide before induction with HGF) and “able to prevent activation” in the experiment with CD44v6 [2] (peptide before induction with HGF). Moreover, the “hVEGF secretion by L3.6pl cells” value in the experiment on L3.6pl cells was “can be blocked”. Further, the “HGF-induced phosphorylation/activation of ERK” value in the experiment on CD44v6 [3] is “inhibited”; with CD44v6 [3] (listed as CD44v6 peptide) it was “able to prevent activation”. In addition, the “HGF-induced phosphorylation/activation of Met” value in the experiment on CD44v6 [3] is reported as “inhibited”; in the experiment on CD44v6 [3] (listed as CD44v6 peptide) it was “able to prevent activation”.

Values taken from US9586994B2, “CD44V6-derived peptides for treating breast cancer” (KARLSRUHER INSTITUT FÜR TECHNOLOGIE, priority 2012, dated 2017).
